From PubChem BioAssay AID624491 (Broad Institute, 2012)

What follows are compounds tested on D54 ERlucT glycosylation luciferase reporter, luminescence, 24 h (assay: blockers of NLG process in reporter cells – D54 ERlucT cells, luminescence, cherry-picks, dose response (AID 624491);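 further: signal gain reflects blocked N-linked glycosylation of a luciferase reporter; actives raise luciferase signal so AC26 marks activators of the reporter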).

Structure (SMILES)	AC26
Cc1cccn2c(=O)c3cc(C(=O)NCc4ccco4)c(=N)n(CCc4ccccc4)c3nc12	1170 nM
CC(=O)Nc1ccc(Nc2ccc3c4c(cc(=O)n3C)-c3ccccc3C(=O)c24)cc1	730 nM
O=C(CSCc1ccco1)Nc1cc(C(F)(F)F)ccc1N1CCOCC1	2080 nM
CN(C)CCCN1C(=O)c2cccc3cccc(c23)C1=O	3880 nM
COc1ccc(Nc2nc(N(C)c3ccccc3)nc(N)c2[N+](=O)[O-])cc1	271 nM
COc1ccc2c(c1)OC[C@H]1[C@H]2N2C(=O)c3ccc(F)cc3NC(=O)[C@@]2(C)[C@H]1c1ccccc1	1230 nM
Cc1cc(C)cc(-n2c3ccc(NC(=O)Cc4cccc5ccccc45)cc3c(=O)n2C)c1	1780 nM
COc1cc(C(=O)c2cocc2C(=O)c2ccc3c(c2)OCO3)cc(OC)c1OC	111 nM
CCn1c(=O)c2cc(C(=O)NCCCOC)sc2c2ccccc21	2460 nM
COc1ccccc1NS(=O)(=O)c1ccc(C(=O)Nc2ncccc2O)cc1	7090 nM
Cc1ccc(-c2nn3c(C)nnc3s2)cc1NCc1c(F)cccc1Cl	7650 nM
Cc1ccccc1OCCOC(=O)c1c(-c2ccccc2)noc1C	8510 nM
Cn1c(=O)c2cc(NC(=O)CCc3ccccc3)ccc2n1-c1ccccc1F	1780 nM
Nc1cccc2c1C(=O)N(C(=O)/C=C/c1ccc(F)cc1)C2=O	6790 nM
O=C(Cc1ccc(-c2ccccc2)cc1)NCc1cccnc1	12400 nM
CC(CCc1ccco1)NC(=O)CCc1nnc2ccc(NCc3ccc(Cl)cc3)nn12 (stereo not given)	1260 nM
O=C(C=Cc1ccccc1F)c1ccccc1	3230 nM
CCN(CC)CCNc1ccc(C)c2sc3ccc(O)cc3c(=O)c12	7.74 nM
COc1cc(C(=O)N/N=C(\C)c2ccc3c(c2)OCO3)cc(OC)c1OC	1260 nM
CCCCCCn1c(=O)n2n(c1=O)[C@@H]1CN(S(=O)(=O)c3ccc(C)cc3)C[C@]1(O)[C@@H](OC(=O)NCc1ccccc1)C2	763 nM
Cc1nn(-c2ccccc2)c(Cl)c1/C=C/C(=O)c1ccc(O)cc1	5020 nM
COc1cccc(-c2nc(N3CCN(C)CC3)c3ccccc3n2)c1O	3610 nM
CSC1=NC(C(Cl)(Cl)Cl)N=C(c2ccccc2)N1 (stereo not given)	1470 nM
COc1cc(-c2[nH]ncc2CN2CCSCC2)cc(OC)c1OC	4790 nM
CN(C)CCNc1ccc2nnn3c4ccc(O)cc4c(=O)c1c23	52 nM
COC(=O)c1ccc(C)c(NS(=O)(=O)c2ccc3c(c2)OCCO3)c1	44.7 nM
O=C(NCc1ccccc1)C(=O)NCC1COc2ccccc2O1 (stereo not given)	13000 nM

Structure (SMILES)	AC26
Cc1ccc(NC(=O)c2cc(S(=O)(=O)N(C)C)ccc2N2CCCC2)cc1F	109 nM
Cn1c(SCC(=O)c2ccc(F)cc2)ncc(C(=O)Nc2ccccc2)c1=O	4770 nM
Cc1cc(C)c2c(N)c3ccccc3nc2n1	762 nM
CCc1ccc2[nH]c3nc(SCC(=O)NNC(=O)c4ccc(C(C)(C)C)cc4)nnc3c2c1	4110 nM
O=C(N=Nc1c(O)[nH]c2ccc(Br)cc12)c1cc(-c2cccs2)nc2ccccc12	4850 nM
CCc1nnc2n1N=C(c1ccc(OC)cc1)CS2	6840 nM
CC(C)(C)n1nnnc1C(c1ccccc1)N1CCc2ccccc2C1 (stereo not given)	13900 nM
CCOc1ccc(OCC)c(NC(=O)c2nnn(CC(=O)Nc3cc(C)cc(C)c3)c2N)c1	6440 nM
O=C(NCc1ccc(F)c(F)c1)C1Cc2c(-c3ccc4c(c3)OCO4)ccnc2O1 (stereo not given)	2750 nM
COc1cc2[nH]c(C(=O)Nc3ccc(F)cc3)cc2c(OC)c1OC	742 nM
CCOc1cc(-c2c(C#N)c(N)nc3c2CCc2ccccc2-3)ccc1O	9010 nM
CCOC(=O)c1cc2sccc2n1CC(=O)N1CCc2ccccc21	7500 nM
CCOC(=O)c1nnc(-c2ccc(C)cc2)nc1Sc1ccccc1Cl	6170 nM
CC1(C(=O)NCCc2ccccc2)Cc2c(-c3ccc4c(c3)OCO4)ccnc2O1 (stereo not given)	3160 nM
CC(C)CN(C(=O)COC(=O)CCSc1ccc(Cl)cc1)c1c(N)n(Cc2ccccc2)c(=O)[nH]c1=O	4450 nM
COc1ccc(S(=O)(=O)Nc2c(C(=O)O)[nH]c3ccc(OC)cc23)c(OC)c1	5750 nM
CC(C)c1ccc(OCc2ccc(C(=O)N3CCCC3)o2)cc1	4230 nM
Cc1ccc(C(=O)/C=C/c2ccc(Br)cc2)o1	16600 nM
O=C(NCc1cccs1)C1CCN(c2ccc(S(=O)(=O)N3CCOCC3)cc2Cl)CC1	646 nM
O=C(/C=C/c1ccc(-c2ccccc2[N+](=O)[O-])o1)c1ccc(Br)cc1	4780 nM
COc1ccccc1-n1cnc2cc(NCc3cccs3)ccc21	141 nM
COC(=O)c1ccc(C(=O)NC2CC(C)(C)Cc3c2cnn3-c2ccc(F)cc2)nc1 (stereo not given)	4170 nM
CC(=O)Nc1cccc(-c2ccnc3c2CC(C(=O)NCCc2ccccc2)O3)c1 (stereo not given)	1910 nM
Cc1nc(Nc2nc(-c3ccccc3)cc(=O)[nH]2)nc2ccccc12	1690 nM
CNc1ccc(Br)cc(C(=O)/C=C/c2ccc(OC)cc2)c1=O	2660 nM
COc1ccc(-c2cc(C(F)F)n3ncc(C(=O)N4CCc5ccccc54)c3n2)cc1	2500 nM
COc1ccc2nc(C)cc(Nc3ccc(N4CCOCC4)cc3)c2c1	1260 nM

Structure (SMILES)	AC26
CC(=O)c1ccc(Oc2cc(C)nc(-n3nc(C)cc3C)n2)cc1	726 nM
CCN(CC)CCC(=O)Nc1cccc2c1C(=O)c1ccccc1C2=O	965 nM
CCN(CC)c1ccc(/C=N/n2nnnc2N)c(O)c1	3410 nM
O=C(/C=C/Sc1ccc(C(F)(F)F)cn1)c1ccccc1	3910 nM
Cc1cc(C(=O)N/N=C/c2c3ccccc3cc3ccccc23)n[nH]1	6680 nM
Cc1ccc(C(=O)N/C(=C\c2cccs2)C(=O)NCCc2c[nH]c3ccccc23)cc1	378 nM
COc1ccc(-n2c(NNC(C)=O)nc3sc4c(c3c2=O)CCCC4)cc1	6720 nM
CCOc1ccc(Cl)cc1C1=CC(=O)C[C@H](c2ccc(OC)cc2)C1	472 nM
COc1ccc(C2=NOC(C(=O)NCc3ccco3)C2)cc1 (stereo not given)	2400 nM
CCOc1cc(N2CCOCC2)c(OCC)cc1NC(=O)c1[nH]c(C)c(C(C)=O)c1C	1620 nM
Cc1ccnc(NC(=O)C(Cc2ccccc2)NC(=O)c2ccccc2)c1 (stereo not given)	564 nM
O=C(/C=C/c1cn(-c2ccccc2)nc1-c1cccnc1)c1ccco1	628 nM
COc1cc(-c2cnc3c(NC(C)=O)cc(-c4ccccc4CN(C)C)cn23)cc(OC)c1OC	2650 nM
C=C(C)[C@@]12OC3(c4ccccc4)O[C@@H]1C1[C@@H]4O[C@]4(CO)[C@@H](O)[C@]4(O)C(=O)C(C)=C[C@H]4[C@@]1(O3)[C@H](C)[C@H]2OC(=O)/C=C/C=C/c1ccccc1 (stereo not given in full)	< 1.2 nM
COc1cc2c(cc1OC)C(=O)N1[C@H]3c4cc(Cl)ccc4OC[C@@H]3[C@H](c3ccccc3)[C@]1(C)C(=O)N2	609 nM
Cn1c(=O)cc2c3c(c(N4CCCCC4)ccc31)C(=O)c1ccccc1-2	4360 nM
Cc1[nH][nH]c(=O)c1C(c1ccc(-c2ccc(Cl)c(Cl)c2)o1)c1c(C)[nH][nH]c1=O	917 nM
CCOC(=O)COc1cccc2c(=O)n(CC(=O)NCc3ccccc3)ccc12	2540 nM
Cc1ccc(/C=N/NC(=O)c2sccc2OCc2ccc(F)cc2)cc1	2440 nM
CC1(C)Cc2nc3sc4c(SCC(=O)NCc5ccccc5)ncnc4c3cc2CO1	160 nM
C=CCN(CC=C)S(=O)(=O)c1ccc(C(=O)Nc2nc3c(s2)CCc2ccccc2-3)cc1	6790 nM
COc1ccc(OC)c(N(CC(=O)Nc2cccc3ccccc23)S(C)(=O)=O)c1	3100 nM
COC(=O)c1ccccc1-c1ccc(C(c2c(C)[nH][nH]c2=O)c2c(C)[nH][nH]c2=O)o1	5960 nM
COc1ccc2c(-c3cc4ccc(OCc5ccc(F)cc5)cc4oc3=O)cc(=O)oc2c1	4410 nM
Cc1cccc2sc(NC(=O)c3cc(S(=O)(=O)N(C)C)ccc3N3CCCC3)nc12	157 nM
Cc1ccc(C)c(NC(=O)Cn2nnc(C(=O)NCc3ccco3)c2N)c1	9800 nM
COc1cccc(C2=NOC(C(=O)NCc3ccccc3)C2)c1 (stereo not given)	73.2 nM

Structure (SMILES)	AC26
CSc1ccc(/C=N/NC(=O)c2ccccc2Cl)cc1	3680 nM
CC(C)n1c(/C=C/[C@H](O)C[C@H](O)CC(=O)O)c(-c2ccc(F)cc2)c2ccccc21	77.8 nM
CCN(CC)S(=O)(=O)c1ccc(N2CCOCC2)c(NC(=O)c2[nH]c(C)c(C(C)=O)c2C)c1	1860 nM
Cn1c(=O)[nH]c(=O)c2c1nc(N/N=C/c1cccnc1)n2Cc1ccc(Cl)cc1	1630 nM
CCOc1ccc(/C=C2\SC(N3CCCCC3)=NC2=O)cc1	1100 nM
CC(=O)Nc1ccc(CC(=O)NCCC(c2ccccc2)c2ccccc2)cc1	11300 nM
COc1ccc(C(=O)N/N=C/C23CC[C@@H](O)CC2(O)CC[C@@H]2[C@@H]3CCC3(C)C(C4=CC(=O)OC4)CCC23O)cc1 (stereo not given in full)	5710 nM
Cn1c(=O)n(C)c2cc(S(=O)(=O)N3CCCc4ccccc43)ccc21	3550 nM
N#Cc1c(NCCN)nc(-c2ccco2)c2c1CCCC2	1730 nM
Cc1ccc(NC(=O)C(Cc2ccccc2)N2C(=O)C3C4CCC(C4)C3C2=O)cc1Cl (stereo not given)	3240 nM
O=C(C[C@H]1C/C=C\C[C@H](Cc2ccc(F)cc2)C(=O)O[C@@H](c2ccccc2)CNC1=O)N[C@@H](CO)Cc1ccccc1	892 nM
O=C(CSc1c2c(nc3ccc(Cl)cc13)CCCC2)N1CCN(C(=O)c2ccco2)CC1	7690 nM
COc1ccc([C@@H]2[C@@H]3C(=O)N(C(C)(C)C)C(=O)[C@@H]3[C@]3(Cc4ccccc4)C(=O)N(c4cccc(C)c4)C(=O)N23)cc1	1300 nM
Cc1ccc(-c2cc(C(=O)N3CC(C)OC(C)C3)c3ccccc3n2)o1 (stereo not given)	4280 nM
C/C(=N\O)C(=O)C(CN1CCCCC1)CN1CCCCC1	1500 nM
COc1ccc(-c2cnc3c(NC=O)cc(-c4ccccc4)cn23)cc1OC	97.1 nM
O=C(CC1Sc2ccccc2NC1=O)NNc1ccc(Cl)c(Cl)c1 (stereo not given)	2840 nM
Nc1ccc(C(=O)N2CCN(S(=O)(=O)c3ccc4c(c3)OCCO4)CC2)cc1[N+](=O)[O-]	3880 nM
Cc1ccc(Cl)cc1N1CCN(S(=O)(=O)c2ccc(-c3ccc(=O)[nH]n3)o2)CC1	5210 nM
CN(C)c1ccc(/C=C/C(=O)c2ccc(C(C)(C)C)cc2)cc1[N+](=O)[O-]	5570 nM
COc1ccc(S(=O)(=O)N2N=C(C)Oc3ccccc3C2=O)cc1	1250 nM
CN(Cc1ccccc1)c1nc2c(c(=O)[nH]c(=O)n2C)n1CCCc1ccccc1	2830 nM
COc1cc2nc(N(C)C)nc(N)c2cc1OC	3660 nM
CC(=O)N1CCc2c(sc(NC(=O)c3ccc4c(c3)OCCO4)c2C#N)C1	1950 nM
